Measured values reported in patent publication US20170166598A1, “HETEROARYL COMPOUNDS FOR KINASE INHIBITION” (ARIAD PHARMACEUTICALS, INC., priority 2014, published 2017).

Legend:
Type in all cases: cell-based
[1] = biological target: T1, human EGFR exon 20 insertion NPG (H773_V774insNPG) (Homo sapiens, UniProt P00533, INS772GNP); assay: Ba/F3-EGFR-Exon20-NPG cell anti-proliferative assay (CellTiter 96 MTS, 72 h); settings: Ba/F3-EGFR-Exon20-NPG cells
T1 construct: expressed in transfected cells; host or cells: Ba/F3 (murine pro-B) cells transduced with lentivirus from pLVX-IRES puro
Method in brief: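 Viable-cell readout used absorbance at 490 nm of MTS-derived formazan, 2 h after reagent addition, following 72 h compound treatment at 37 °C, 5% CO2. Cells: puromycin-selected, IL-3-depleted Ba/F3 expressing EGFR exon 20 ASV or NPG; dosing 4-fold series from 10,000 nM.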

[2] = biological target: T2, human EGFR exon 20 insertion ASV (V769_D770insASV) (Homo sapiens, UniProt P00533, INS769ASV); assay: Ba/F3-EGFR-Exon20-ASV cell anti-proliferative assay (CellTiter 96 MTS, 72 h); settings: Ba/F3-EGFR-Exon20-ASV cells
T2 construct: expressed in transfected cells; host or cells: Ba/F3 (murine pro-B) cells transduced with lentivirus from pLVX-IRES puro
Method: An expression vector, pLVX-IRES puro (Clontech) coding for human EGFR exon 20 insertions NPG (H773_V774insNPG) or ASV (V769_D770insASV), was transfected into HEK293 cells by the Trans-Lentiviral ORF Packaging System (Thermo Scientific), to produce virus encoding EGFR exon 20 insertions. Ba/F3 (DSMZ) cells maintained in RPMI 1640 medium supplemented with 10% fetal bovine serum, 200 μM L-glutamine/l 200 μg/mL penicillin/200 μg/mL streptomycin (Life Technology) and 10 ng/mL IL-3 (R&D system), were infected by EGFR Exon20 virus and subsequently selected by puromycin (Life Technology) selection and IL-3 depletion. […] The anti-proliferative activity of compounds were determined as follows: BaF3-EGFR-Exon20 cells (NPG or ASV) seeded in 96 well plates (2500 cells/well) were treated with test compound (dissolved in DMSO) at a series of concentrations (4-fold dilution, top concentration: 10,000 nM). The plates were incubated for 72 h in a 37° C. incubator with 5% CO2, and the number of viable cells in each well were measured indirectly by CellTiter 96® Aqueous One Solution Cell Proliferation Assay (Promega) This assay is a colorimetric method for determining the number of viable cells through measurement of their metabolic activity by detection of enzymatic conversion of tetrazolium salts into blue formazan derivatives. Reagent (20 μL) was added into each well, and the plates were returned to the incubator for 2 h. The absorbance in each well was then measured at 490 nm using an Envision plate reader (Perkin Elmer).

[3] = biological target: T3, Her2 exon 20 YVMA insertion (A775_G776ins YVMA) (Homo sapiens, UniProt P04626, INS775YVMA); assay: Ba/F3-Her2 Exon20 YVMA cell anti-proliferative assay (CellTiter 96 MTS, 72 h); settings: Ba/F3-Her2 Exon20 YVMA cells
T3 construct: expressed in transfected cells; host or cells: Ba/F3 (murine pro-B) cells transduced with lentivirus from pLVX-IRES puro
Method in brief: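 Anti-proliferation: compound series (top 10,000 nM, 4-fold steps) was applied to Ba/F3-Her2 Exon20 YVMA cells grown without IL-3 for 72 h. Viability was read colorimetrically (CellTiter 96 Aqueous One, A490, 2 h reagent incubation).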

[4] = biological target: T4, human EGFR E746-A750 deletion and T790M Mutation (Homo sapiens, UniProt P00533, DEL746-750/T790M); assay: Ba/F3-EGFR-Del/T790M cell anti-proliferative assay (CellTiter 96 MTS, 72 h); settings: Ba/F3-EGFR-Del/T790M cells
T4 construct: expressed in transfected cells; host or cells: Ba/F3 (murine pro-B) cells transduced with lentivirus from pLVX-IRES puro
Method in brief: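 Compound exposure: 72 h, 37 °C, 4-fold series topping at 10,000 nM. Target cells are Ba/F3 transduced with EGFR exon 19 deletion plus T790M, selected by puromycin and IL-3 withdrawal. Viable cell number inferred from MTS metabolic conversion, A490 read 2 h after reagent addition.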

T4 sequence (P00533 with tags, fused parts or gaps DEL746-750/T790M): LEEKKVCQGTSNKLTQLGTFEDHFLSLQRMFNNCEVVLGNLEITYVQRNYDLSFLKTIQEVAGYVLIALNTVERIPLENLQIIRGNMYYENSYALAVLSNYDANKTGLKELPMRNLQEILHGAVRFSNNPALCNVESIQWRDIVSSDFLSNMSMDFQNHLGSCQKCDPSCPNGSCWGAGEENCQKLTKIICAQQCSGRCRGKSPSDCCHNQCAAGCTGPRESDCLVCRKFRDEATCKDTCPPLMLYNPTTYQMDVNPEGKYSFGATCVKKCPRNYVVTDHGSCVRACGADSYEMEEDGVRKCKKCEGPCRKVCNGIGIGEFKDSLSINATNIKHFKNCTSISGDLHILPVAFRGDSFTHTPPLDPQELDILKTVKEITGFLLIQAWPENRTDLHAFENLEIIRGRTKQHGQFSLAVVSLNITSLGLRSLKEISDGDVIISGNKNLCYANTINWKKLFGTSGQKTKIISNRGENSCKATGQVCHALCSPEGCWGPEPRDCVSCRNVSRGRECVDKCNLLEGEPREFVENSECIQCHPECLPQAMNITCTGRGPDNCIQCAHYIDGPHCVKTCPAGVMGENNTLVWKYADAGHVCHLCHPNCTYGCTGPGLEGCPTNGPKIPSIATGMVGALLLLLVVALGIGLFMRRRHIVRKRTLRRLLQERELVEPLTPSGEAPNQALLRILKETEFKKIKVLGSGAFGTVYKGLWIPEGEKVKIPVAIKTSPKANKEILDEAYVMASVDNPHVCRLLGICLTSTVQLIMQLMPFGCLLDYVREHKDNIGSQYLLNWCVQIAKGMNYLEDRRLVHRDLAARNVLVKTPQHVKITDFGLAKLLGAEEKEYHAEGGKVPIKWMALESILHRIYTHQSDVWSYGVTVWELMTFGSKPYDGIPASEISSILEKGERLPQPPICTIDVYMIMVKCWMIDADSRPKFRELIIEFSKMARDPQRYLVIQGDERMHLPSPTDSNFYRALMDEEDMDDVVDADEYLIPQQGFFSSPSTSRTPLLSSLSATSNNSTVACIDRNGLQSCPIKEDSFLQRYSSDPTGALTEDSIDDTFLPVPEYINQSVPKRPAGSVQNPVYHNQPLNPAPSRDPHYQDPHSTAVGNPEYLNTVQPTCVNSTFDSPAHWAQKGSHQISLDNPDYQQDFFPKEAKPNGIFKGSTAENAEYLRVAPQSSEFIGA
T2 sequence (P00533 with tags, fused parts or gaps INS769ASV): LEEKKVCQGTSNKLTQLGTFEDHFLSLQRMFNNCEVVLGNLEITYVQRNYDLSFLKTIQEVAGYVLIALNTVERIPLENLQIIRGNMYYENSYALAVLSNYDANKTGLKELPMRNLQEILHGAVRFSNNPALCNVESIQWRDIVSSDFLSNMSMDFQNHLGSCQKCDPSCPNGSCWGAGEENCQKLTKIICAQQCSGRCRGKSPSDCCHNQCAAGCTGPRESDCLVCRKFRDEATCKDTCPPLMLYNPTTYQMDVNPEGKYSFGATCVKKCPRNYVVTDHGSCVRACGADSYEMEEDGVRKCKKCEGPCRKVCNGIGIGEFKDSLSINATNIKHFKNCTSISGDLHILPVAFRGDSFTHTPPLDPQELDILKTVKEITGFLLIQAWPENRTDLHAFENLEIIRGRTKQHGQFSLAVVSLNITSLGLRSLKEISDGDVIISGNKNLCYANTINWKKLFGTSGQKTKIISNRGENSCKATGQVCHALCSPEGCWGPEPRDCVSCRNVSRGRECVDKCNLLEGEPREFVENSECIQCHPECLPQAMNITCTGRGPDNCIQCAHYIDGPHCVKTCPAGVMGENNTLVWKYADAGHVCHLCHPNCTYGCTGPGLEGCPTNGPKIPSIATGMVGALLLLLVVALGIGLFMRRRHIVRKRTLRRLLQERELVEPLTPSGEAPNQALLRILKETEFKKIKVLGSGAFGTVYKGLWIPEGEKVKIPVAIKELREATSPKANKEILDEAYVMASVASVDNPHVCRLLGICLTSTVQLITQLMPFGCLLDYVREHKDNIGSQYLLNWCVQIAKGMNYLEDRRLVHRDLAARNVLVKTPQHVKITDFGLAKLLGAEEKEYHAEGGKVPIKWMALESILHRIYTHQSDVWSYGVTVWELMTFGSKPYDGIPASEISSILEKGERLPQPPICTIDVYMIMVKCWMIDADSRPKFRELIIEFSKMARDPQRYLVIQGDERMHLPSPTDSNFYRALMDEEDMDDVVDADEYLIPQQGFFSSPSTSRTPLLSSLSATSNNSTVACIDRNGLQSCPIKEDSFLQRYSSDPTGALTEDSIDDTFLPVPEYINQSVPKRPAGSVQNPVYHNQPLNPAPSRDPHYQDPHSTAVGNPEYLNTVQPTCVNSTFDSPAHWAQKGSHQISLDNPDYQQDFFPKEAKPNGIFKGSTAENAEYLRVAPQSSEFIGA
T1 sequence (P00533 with tags, fused parts or gaps INS772GNP): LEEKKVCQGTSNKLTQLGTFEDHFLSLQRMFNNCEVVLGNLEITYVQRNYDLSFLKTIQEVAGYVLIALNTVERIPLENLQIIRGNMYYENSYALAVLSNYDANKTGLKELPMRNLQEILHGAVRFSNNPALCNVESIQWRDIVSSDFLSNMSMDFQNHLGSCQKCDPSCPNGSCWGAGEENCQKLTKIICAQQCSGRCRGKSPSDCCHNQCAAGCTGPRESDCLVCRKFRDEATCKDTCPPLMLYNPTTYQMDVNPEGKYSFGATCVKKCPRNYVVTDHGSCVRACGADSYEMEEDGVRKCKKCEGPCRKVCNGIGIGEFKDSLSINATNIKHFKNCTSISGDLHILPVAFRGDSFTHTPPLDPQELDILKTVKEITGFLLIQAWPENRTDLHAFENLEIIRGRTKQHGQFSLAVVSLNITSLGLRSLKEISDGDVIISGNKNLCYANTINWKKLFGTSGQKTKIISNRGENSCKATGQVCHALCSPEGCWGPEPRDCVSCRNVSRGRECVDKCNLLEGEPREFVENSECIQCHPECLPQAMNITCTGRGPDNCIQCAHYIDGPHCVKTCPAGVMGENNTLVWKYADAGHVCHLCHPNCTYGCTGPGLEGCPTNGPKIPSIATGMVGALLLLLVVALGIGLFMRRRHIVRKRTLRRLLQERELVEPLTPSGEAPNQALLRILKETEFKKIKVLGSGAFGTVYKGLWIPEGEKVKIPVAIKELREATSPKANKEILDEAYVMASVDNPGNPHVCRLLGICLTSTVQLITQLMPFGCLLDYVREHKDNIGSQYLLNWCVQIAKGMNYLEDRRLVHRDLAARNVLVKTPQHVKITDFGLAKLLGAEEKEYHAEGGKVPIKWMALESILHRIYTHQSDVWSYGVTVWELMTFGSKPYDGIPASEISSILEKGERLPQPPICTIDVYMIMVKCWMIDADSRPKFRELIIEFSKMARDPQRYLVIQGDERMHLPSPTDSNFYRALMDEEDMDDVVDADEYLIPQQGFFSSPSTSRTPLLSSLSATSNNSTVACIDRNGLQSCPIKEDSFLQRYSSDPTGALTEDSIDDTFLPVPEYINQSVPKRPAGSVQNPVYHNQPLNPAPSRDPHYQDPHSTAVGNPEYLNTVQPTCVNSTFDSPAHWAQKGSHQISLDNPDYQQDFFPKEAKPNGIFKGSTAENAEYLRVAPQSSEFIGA
T3 sequence (P04626 with tags, fused parts or gaps INS775YVMA): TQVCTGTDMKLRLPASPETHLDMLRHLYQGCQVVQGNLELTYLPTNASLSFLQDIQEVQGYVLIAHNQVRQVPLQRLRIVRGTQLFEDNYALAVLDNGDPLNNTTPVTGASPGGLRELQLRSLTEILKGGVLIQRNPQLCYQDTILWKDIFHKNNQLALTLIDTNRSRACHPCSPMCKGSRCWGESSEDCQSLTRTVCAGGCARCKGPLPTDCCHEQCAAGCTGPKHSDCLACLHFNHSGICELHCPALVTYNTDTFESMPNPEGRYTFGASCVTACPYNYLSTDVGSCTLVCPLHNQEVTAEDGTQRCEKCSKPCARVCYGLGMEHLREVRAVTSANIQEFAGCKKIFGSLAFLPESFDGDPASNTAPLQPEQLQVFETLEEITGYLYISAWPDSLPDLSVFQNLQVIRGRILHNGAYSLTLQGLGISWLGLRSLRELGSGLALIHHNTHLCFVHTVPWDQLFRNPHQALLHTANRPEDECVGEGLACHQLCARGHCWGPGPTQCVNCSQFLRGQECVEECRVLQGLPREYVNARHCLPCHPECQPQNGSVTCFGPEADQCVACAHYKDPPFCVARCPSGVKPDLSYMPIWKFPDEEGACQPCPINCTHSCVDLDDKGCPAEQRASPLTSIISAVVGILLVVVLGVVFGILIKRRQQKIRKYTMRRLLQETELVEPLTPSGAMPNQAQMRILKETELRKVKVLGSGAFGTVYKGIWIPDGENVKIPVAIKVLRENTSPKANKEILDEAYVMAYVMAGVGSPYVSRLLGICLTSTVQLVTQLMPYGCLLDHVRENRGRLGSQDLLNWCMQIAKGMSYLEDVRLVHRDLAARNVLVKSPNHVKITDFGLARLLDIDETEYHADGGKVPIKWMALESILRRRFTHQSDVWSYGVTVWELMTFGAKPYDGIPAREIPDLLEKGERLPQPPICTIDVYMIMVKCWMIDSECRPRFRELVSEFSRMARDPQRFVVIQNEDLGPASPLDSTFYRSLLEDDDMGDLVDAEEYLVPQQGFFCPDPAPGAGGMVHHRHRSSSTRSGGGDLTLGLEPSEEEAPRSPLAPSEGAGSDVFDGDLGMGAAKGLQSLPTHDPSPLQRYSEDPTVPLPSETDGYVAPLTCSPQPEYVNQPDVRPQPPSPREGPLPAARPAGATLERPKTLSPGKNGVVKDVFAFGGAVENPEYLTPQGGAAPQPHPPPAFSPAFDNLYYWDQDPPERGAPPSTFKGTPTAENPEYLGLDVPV

SMILES	IC50 [1] [nM]	IC50 [2] [nM]	IC50 [3] [nM]	EGFR exon 19 deletion and exon 20 T790M mutation IC50 [4]
C=CC(=O)Nc1cc(Nc2ncc(C#N)c(-c3cn4c5c(cccc35)CCC4)n2)c(OC)cc1N1CC[C@H](N(C)C)C1 [Example 16, (S)-N-(5-((5-cyano-4-(5,6-dihydro-4H-pyrrolo[3,2,1-ij]quinolin-1-yl)pyrimidin-2-yl)amino)-2-(3-(dimethylamino)pyrrolidin-1-yl)-4-methoxyphenyl)acrylamide]	< 100	< 100	100 to 500	A (IC50 value for the indicated mutant below about 100 nM)
C=CC(=O)Nc1cc(Nc2nccc(-c3c(-c4ncccn4)n4c5c(cccc35)CCC4)n2)c(OC)cc1N(C)CCN(C)C [Example 109]	100 to 500	> 1000	> 1000	B (IC50 value for the indicated mutant between about 100 to about 500 nM)
C=CC(=O)Nc1cc(Nc2ncc(C(=O)NC)c(-c3nn4c5c(cccc35)OCC4)n2)c(OC)cc1N(C)CCN(C)C [Example 67]	> 1000	> 1000	> 1000	D (IC50 value for the indicated mutant greater than about 1 μM)
C=CC(=O)Nc1cc(Nc2ncc(NC(=O)CC)c(-c3cn4c5c(cccc35)CCC4)n2)c(OC)cc1N(C)CCN(C)C [Example 91]	< 100	< 100	100 to 500	A (IC50 value for the indicated mutant below about 100 nM)
C=CC(=O)Nc1cc(Nc2ncc(-c3cn[nH]c3)c(-c3cn4c5c(cccc35)CCC4)n2)c(OC)cc1N(C)CCN(C)C [Example 85, N-(5-((4-(5,6-dihydro-4H-pyrrolo[3,2,1-ij]quinolin-1-yl)-5-(1H-pyrazol-4-yl)pyrimidin-2-yl)amino)-2-((2-(dimethylamino)ethyl)(methyl)amino)-4-methoxyphenyl)acrylamide]	< 100	< 100	< 100	A (IC50 value for the indicated mutant below about 100 nM)
C=CC(=O)Nc1cc(Nc2nccc(-c3c(N4CC[C@H](O)C4)n4c5c(cccc35)CCC4)n2)c(OC)cc1N(C)CCN(C)C [Example 75]	< 100	< 100	< 100	A (IC50 value for the indicated mutant below about 100 nM)
C=CC(=O)Nc1cc(Nc2nccc(-c3c(N4CCN(C)C(=O)C4)n4c5c(cccc35)CCC4)n2)c(OC)cc1N(C)CCN(C)C [Example 94]	100 to 500	100 to 500	> 1000	C (IC50 value for the indicated mutant between greater than about 500 to about 1 μM)
C=CC(=O)Nc1cc(Nc2nccc(-c3c(-c4ncnn4C)n4c5c(cccc35)CCC4)n2)c(OC)cc1N(C)CCN(C)C [Example 110]	< 100	100 to 500	> 1000	A (IC50 value for the indicated mutant below about 100 nM)
C=CC(=O)Nc1cc(Nc2ncc(OC)c(-c3cn4c5c(cccc35)CCC4)n2)c(OC)cc1N(C)CCN(C)C [Example 19, N-(5-((4-(5,6-dihydro-4H-pyrrolo[3,2,1-ij]quinolin-1-yl)-5-methoxypyrimidin-2-yl)amino)-2-((2-(dimethylamino)ethyl)(methyl)amino)-4-methoxyphenyl)acrylamide]	< 100	< 100	100 to 500	A (IC50 value for the indicated mutant below about 100 nM)
C=CC(=O)Nc1cc(Nc2nccc(-c3c(N4CCC(OC)C4)n4c5c(cccc35)CCC4)n2)c(OC)cc1N(C)CCN(C)C (stereo not drawn) [Example 90]	< 100	100 to 500	100 to 500	A (IC50 value for the indicated mutant below about 100 nM)
[2H]C([2H])([2H])N(CCN(C)c1cc(OC)c(Nc2ncc(Cl)c(-c3cn4c5c(cccc35)OCC4)n2)cc1NC(=O)C=C)C([2H])([2H])[2H] [Example 7, N-(2-((2-(bis(methyl-d3)amino)ethyl)(methyl)amino)-5-((5-chloro-4-(2,3-dihydro-[1,4]oxazino[2,3,4-hi]indol-6-yl)pyrimidin-2-yl)amino)-4-methoxyphenyl)acrylamide]	< 100	< 100	< 100	A (IC50 value for the indicated mutant below about 100 nM)
C=CC(=O)Nc1cc(Nc2ncc(C(O)CC)c(-c3cn4c5c(cccc35)CCC4)n2)c(OC)cc1N(C)CCN(C)C (stereo not drawn) [Example 73, N-(5-((4-(5,6-dihydro-4H-pyrrolo[3,2,1-ij]quinolin-1-yl)-5-(1-hydroxypropyl)pyrimidin-2-yl)amino)-2-((2-(dimethylamino)ethyl)-(methyl)amino)-4-methoxyphenyl)acrylamide]	< 100	< 100	100 to 500	A (IC50 value for the indicated mutant below about 100 nM)
C=CC(=O)Nc1cc(Nc2ncc(-c3ncccn3)c(-c3cn4c5c(cccc35)CCC4)n2)c(OC)cc1N(C)CCN(C)C [Example 108]	< 100	100 to 500	> 1000	B (IC50 value for the indicated mutant between about 100 to about 500 nM)
C=CC(=O)Nc1cc(Nc2nccc(-c3c(N4CCCC4)n4c5c(cccc35)CCC4)n2)c(OC)cc1N(C)CCN(C)C [Example 93]	< 100	< 100	100 to 500	A (IC50 value for the indicated mutant below about 100 nM)
C=CC(=O)Nc1cc(Nc2ncc(Cl)c(-c3cn4c5c(cccc35)OCC4)n2)c(OC)cc1N(C)CC1CCCN1C (stereo not drawn) [Example 8, N-(5-((5-chloro-4-(2,3-dihydro-[1,4]oxazino[2,3,4-hi]indol-6-yl)pyrimidin-2-yl)amino)-4-methoxy-2-(methyl((1-methylpyrrolidin-2-yl)methyl)amino)phenyl)acrylamide]	< 100	< 100	100 to 500	A (IC50 value for the indicated mutant below about 100 nM)
C=CC(=O)Nc1cc(Nc2ncc(CC)c(-c3cn4c5c(cccc35)N(C)C(=O)C4)n2)c(OC)cc1N(C)CCN(C)C [Example 66, N-(2-((2-(dimethylamino)ethyl)(methyl)amino)-5-((5-ethyl-4-(1-methyl-2-oxo-2,3-dihydro-1H-pyrrolo[1,2,3-de]quinoxalin-6-yl)pyrimidin-2-yl)amino)-4-methoxyphenyl)acrylamide]	< 100	< 100	< 100	A (IC50 value for the indicated mutant below about 100 nM)
C=CC(=O)Nc1cc(Nc2ncc(C#N)c(-c3cn4c5c(cccc35)CCC4)n2)c(OC)cc1N1CC[C@@H](N(C)C)C1 [Example 15, (R)-N-(5-((5-cyano-4-(5,6-dihydro-4H-pyrrolo[3,2,1-ij]quinolin-1-yl)pyrimidin-2-yl)amino)-2-(3-(dimethylamino)pyrrolidin-1-yl)-4-methoxyphenyl)acrylamide]	< 100	< 100	100 to 500	A (IC50 value for the indicated mutant below about 100 nM)
C#Cc1cnc(Nc2cc(NC(=O)C=C)c(N(C)CCN(C)C)cc2OC)nc1-c1cn2c3c(cccc13)CCC2 [Example 31, N-(5-((4-(5,6-dihydro-4H-pyrrolo[3,2,1-ij]quinolin-1-yl)-5-ethynylpyrimidin-2-yl)amino)-2-((2-(dimethylamino)ethyl)(methyl)amino)-4-methoxyphenyl)acrylamide]	< 100	< 100	< 100	A (IC50 value for the indicated mutant below about 100 nM)
